Measurements from ChEMBL document CHEMBL1201862, “PubChem BioAssay data set” (2004).
The source made the active and inactive calls.

Legend:
[1] = target: T1, Mannose-6-phosphate isomerase (Homo sapiens, UniProt P34949); assay: MPI inhibition at elevated mannose 6-phosphate – biochemical, fluorescence intensity, high mannose 6-phosphate, primary screen (AID 1220)
T1 sequence (P34949 whole entry): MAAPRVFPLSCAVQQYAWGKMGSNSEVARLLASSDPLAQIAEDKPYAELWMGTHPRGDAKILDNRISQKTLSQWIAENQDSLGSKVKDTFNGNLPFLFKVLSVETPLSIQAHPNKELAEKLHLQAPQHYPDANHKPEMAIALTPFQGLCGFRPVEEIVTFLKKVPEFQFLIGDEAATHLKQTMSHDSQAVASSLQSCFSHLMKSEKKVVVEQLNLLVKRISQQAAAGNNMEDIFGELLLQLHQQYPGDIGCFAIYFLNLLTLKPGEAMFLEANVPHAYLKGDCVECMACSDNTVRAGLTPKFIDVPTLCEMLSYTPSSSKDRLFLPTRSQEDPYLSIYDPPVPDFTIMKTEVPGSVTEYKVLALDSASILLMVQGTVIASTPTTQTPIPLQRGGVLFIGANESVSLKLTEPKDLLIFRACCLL

[2] = target: FAD-linked sulfhydryl oxidase ALR (Homo sapiens, UniProt P55789); assay: ALR-catalysed DTT oxidation blockers – biochemical, H2O2 detection, luminescence, cherry-pick, dose response (AID 493248)
Sequence of FAD-linked sulfhydryl oxidase ALR (P55789 whole entry): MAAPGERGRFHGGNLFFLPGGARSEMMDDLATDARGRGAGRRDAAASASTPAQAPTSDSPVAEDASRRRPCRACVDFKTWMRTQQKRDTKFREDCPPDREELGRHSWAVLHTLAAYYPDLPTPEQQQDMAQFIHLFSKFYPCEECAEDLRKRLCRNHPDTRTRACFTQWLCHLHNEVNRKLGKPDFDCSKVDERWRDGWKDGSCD

[3] = system: Streptococcus sp. 'group A'; assay: Streptococcus pyogenes SK(-)GAS viability under kanamycin – luminescence, BacTiterGlo, confirmation, counter-screen for streptokinase expression inhibitor project, dose response (AID 1900); type: functional, organism-based
[4] = NIH-3T3 fibroblast cytotoxicity, dose response, cytotoxicity control, cell-based, fluorescence, Alamar Blue, secondary assay (AID 2327); type: functional;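 further: NIH-3T3 mouse fibroblasts cultured with fluconazole at 8 µg/mL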
Streptokinase A = target: T2, Streptokinase A (Streptococcus pyogenes serotype M1, UniProt P10520); assay: viability-normalized secreted streptokinase activity reduction – plasminogen activation absorbance, OD405, dose response (AID 1914); type: functional, Streptococcus pyogenes M1 GAS;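 further: secreted streptokinase activity via plasminogen activation per viability signal from cell pellet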
T2 sequence (P10520 whole entry): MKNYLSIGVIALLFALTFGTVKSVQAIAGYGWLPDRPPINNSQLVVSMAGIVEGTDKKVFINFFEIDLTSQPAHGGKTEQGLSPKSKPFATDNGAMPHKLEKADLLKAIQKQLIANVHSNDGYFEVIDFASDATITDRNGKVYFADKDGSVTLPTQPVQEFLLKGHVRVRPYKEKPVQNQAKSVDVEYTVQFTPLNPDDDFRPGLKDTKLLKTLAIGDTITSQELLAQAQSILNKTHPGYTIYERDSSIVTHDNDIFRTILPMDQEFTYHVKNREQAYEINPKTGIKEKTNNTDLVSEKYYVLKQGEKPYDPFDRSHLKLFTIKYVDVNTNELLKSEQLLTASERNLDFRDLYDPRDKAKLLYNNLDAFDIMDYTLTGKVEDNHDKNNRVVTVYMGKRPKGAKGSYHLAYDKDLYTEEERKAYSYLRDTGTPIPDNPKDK

Streptococcus = assay: GAS UMAA2166 growth inhibition – luminescence, BacTiterGlo, counter-screen for streptokinase expression inhibitor project, dose response (AID 1915); type: functional, organism-based;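 further: potency for reduction of bacterial viability or growth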
[5] = fluconazole-exposed Candida albicans growth modulators – fluorescence, retest, confirmation (AID 2467); type: functional, cell-based
Cytochrome P450 2C9 = Cytochrome P450 2C9 (Homo sapiens, UniProt P11712)
Sequence of Cytochrome P450 2C9 (P11712 whole entry): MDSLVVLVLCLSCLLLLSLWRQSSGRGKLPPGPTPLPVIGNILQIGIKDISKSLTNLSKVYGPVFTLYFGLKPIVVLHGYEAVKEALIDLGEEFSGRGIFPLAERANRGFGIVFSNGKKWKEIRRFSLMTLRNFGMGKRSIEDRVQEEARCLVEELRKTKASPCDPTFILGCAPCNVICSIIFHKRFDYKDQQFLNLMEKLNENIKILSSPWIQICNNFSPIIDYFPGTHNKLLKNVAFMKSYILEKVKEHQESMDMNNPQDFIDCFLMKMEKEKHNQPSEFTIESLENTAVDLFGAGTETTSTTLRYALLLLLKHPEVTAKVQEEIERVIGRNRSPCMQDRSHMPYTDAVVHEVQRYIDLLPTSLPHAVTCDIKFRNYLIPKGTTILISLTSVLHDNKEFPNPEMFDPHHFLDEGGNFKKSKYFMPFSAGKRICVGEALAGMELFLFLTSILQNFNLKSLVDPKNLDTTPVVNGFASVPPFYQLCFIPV

Cytochrome P450 3A4 = Cytochrome P450 3A4 (Homo sapiens, UniProt P08684);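 further: CYP3A4 tested as one member of a cytochrome P450 panel screen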
Sequence of Cytochrome P450 3A4 (P08684 whole entry): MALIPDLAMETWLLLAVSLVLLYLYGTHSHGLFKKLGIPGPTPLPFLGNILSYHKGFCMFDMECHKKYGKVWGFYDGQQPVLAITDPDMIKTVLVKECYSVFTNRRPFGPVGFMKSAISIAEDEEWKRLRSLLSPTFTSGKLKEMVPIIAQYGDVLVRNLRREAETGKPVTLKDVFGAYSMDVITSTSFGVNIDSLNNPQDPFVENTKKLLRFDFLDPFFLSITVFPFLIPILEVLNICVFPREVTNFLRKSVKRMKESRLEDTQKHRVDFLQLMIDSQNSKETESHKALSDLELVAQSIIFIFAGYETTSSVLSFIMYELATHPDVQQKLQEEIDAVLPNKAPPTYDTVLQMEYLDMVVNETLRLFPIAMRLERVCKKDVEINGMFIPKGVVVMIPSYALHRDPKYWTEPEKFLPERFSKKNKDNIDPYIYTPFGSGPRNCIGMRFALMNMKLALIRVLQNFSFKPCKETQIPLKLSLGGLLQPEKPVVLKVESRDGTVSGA

[6] = NIH3T3 cell viability loss – ATP luminescence, mouse fibroblasts, counter-screen, dose response (AID 2010); type: functional, cell-based;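 further: cells exposed to compound for about 90 hours before reading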
[7] = Trypanosoma cruzi growth suppression in host cells – NIH3T3 host cells, beta-gal luminescence, confirmation (AID 2044); type: functional, cell-based;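 further: intracellular parasites grown in NIH/3T3 mouse fibroblasts as host cells; luminescent beta-galactosidase reporter signal from transgenic T. cruzi replicating inside host cells; inhibitors lower the luminescence signal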
[8] = Luminescence Cell-Based Dose Retest to Confirm Inhibitors of Cancer Stem Cells. [Related pubchem assays (depositor defined):AID2717, AID2721]; type: functional; conditions: Homo sapiens
[9] = target: T3, Ubiquitin-conjugating enzyme E2 N (Homo sapiens, UniProt P61088); type: functional;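 further: Dose-response confirmation in a TR-FRET assay detecting UBC13-driven polyubiquitin chain formation, inhibition measured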
T3 sequence (P61088 whole entry): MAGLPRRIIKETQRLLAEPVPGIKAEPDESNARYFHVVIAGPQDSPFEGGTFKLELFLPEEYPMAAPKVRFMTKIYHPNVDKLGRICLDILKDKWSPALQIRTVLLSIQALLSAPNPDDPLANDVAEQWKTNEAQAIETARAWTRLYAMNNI

[10] = target: T4, Corticotropin-releasing factor receptor 2/Corticotropin-releasing factor-binding protein (Homo sapiens, UniProt P24387+Q13324); assay: activators of CRF receptor 2 with binding protein – uHTS hits, confirmation (AID 602473); type: functional; conditions: read-out: EC50_Mean
T4 sequence (Q13324 whole entry): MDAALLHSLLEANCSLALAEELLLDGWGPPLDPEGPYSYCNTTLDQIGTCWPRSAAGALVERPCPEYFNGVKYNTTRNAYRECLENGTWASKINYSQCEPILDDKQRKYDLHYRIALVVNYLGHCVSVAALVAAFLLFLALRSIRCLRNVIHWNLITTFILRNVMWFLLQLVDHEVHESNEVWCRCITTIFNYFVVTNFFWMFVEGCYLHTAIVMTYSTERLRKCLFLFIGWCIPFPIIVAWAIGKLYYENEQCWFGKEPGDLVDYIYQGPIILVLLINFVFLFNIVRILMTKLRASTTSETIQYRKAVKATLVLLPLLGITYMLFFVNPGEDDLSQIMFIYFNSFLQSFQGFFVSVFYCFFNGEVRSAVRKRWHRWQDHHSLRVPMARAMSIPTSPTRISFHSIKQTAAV
T4 sequence (P24387 whole entry): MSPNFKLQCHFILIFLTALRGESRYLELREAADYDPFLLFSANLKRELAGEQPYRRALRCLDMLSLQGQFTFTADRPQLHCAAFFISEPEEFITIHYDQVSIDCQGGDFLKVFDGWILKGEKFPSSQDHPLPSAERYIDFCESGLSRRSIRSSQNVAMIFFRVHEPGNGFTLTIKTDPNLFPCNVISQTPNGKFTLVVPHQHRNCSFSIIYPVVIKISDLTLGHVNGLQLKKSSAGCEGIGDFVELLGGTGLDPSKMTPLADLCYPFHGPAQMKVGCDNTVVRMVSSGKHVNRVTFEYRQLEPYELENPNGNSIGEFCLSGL

[11] = target: T4, Corticotropin-releasing factor receptor 2/Corticotropin-releasing factor-binding protein; assay: Dose Response confirmation of uHTS hits for small molecule antagonists of the CRF-binding protein and CRF-R2 receptor complex.; type: functional; conditions: read-out: IC50_Mean
[12] = target: Luciferin 4-monooxygenase (Photinus pyralis, UniProt P08659); assay: inhibition of purified Photinus pyralis luciferase – biochemical, luminescence, dose response (AID 1891)
Sequence of Luciferin 4-monooxygenase (P08659 whole entry): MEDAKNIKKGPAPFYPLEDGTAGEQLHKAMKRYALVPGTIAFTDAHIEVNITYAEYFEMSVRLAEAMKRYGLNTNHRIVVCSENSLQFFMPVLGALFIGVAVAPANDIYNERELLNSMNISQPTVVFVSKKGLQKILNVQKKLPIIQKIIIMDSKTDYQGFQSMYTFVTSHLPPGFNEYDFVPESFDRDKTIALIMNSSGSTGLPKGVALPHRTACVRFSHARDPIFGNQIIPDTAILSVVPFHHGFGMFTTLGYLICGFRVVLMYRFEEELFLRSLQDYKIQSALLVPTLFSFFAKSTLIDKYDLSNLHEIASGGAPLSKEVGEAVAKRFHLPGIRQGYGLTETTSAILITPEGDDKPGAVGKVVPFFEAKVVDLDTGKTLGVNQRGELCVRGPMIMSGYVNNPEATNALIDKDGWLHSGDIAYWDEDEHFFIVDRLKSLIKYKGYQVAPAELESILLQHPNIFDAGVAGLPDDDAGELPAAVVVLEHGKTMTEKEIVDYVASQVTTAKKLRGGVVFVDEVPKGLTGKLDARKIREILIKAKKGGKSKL

[13] = target: T5, Rac GTPase-activating protein 1 (Homo sapiens, UniProt Q9H0H5); assay: blockers of MgcRacGAP-driven Rac1 GTP hydrolysis – biochemical, ADP Hunter fluorescence, primary and confirmatory, confirmation (AID 624330); type: functional
T5 sequence (Q9H0H5 whole entry): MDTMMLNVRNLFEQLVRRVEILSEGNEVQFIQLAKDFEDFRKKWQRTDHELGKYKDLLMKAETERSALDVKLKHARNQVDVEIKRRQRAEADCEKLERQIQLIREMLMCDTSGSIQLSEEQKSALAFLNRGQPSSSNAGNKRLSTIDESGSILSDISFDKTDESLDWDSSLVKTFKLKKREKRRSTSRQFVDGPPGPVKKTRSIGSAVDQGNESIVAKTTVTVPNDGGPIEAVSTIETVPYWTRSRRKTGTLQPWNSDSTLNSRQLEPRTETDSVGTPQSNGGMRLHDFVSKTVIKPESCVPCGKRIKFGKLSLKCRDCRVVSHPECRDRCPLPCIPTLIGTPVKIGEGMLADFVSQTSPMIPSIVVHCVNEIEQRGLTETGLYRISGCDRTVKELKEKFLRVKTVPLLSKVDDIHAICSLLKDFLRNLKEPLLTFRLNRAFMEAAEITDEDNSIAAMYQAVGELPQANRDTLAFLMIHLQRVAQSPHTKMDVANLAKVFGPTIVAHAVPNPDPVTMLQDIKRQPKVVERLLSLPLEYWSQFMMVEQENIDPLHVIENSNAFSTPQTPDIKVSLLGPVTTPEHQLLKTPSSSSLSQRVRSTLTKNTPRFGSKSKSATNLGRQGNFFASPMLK

[14] = Luminescence Cell-Based Dose Confirmation HTS to Identify Inhibitors of Platelet Dense Granule Release. [Related pubchem assays: 1663 (Primary HTS), 1678 (Summary of Project)]; type: functional
[15] = alpha-synuclein stem-loop luciferase translation blockers – H4 neuroglioma cells, luminescence, confirmation (AID 1988); type: functional, cell-based
[16] = luciferase reporter signal suppression in cells – H4 neuroglioma cells, luminescence, dose response (AID 1990); type: functional, cell-based
[17] = Luminescence Cell-Based Dose Response HTS to Identify Inhibitors of 5'UTR Stem-Loop Driven Prion Protein mRNA Translation in H4 Neuroglioblastoma Cells. [Related pubchem assays: 1827 (Project Summary), 1813 (Primary HTS)]; type: functional
[18] = viability of HCT116 lacking mutant beta-catenin – cell-based, human colon tumor, dose response (AID 1045); type: functional;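 further: HCT116 colon tumor cells with beta catenin knocked out; cells exposed to compound for 60 hours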
[19] = viability of PTEN-deleted HCT116 cells – cell-based, HCT116 PTEN knockout, dose response (AID 1047); type: functional;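 further: HCT116 colon tumor cells with PTEN knocked out; cells exposed to compound for 60 hours before readout; potency for loss of cell viability measured by luminescence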
Nonstructural protein 1 = Nonstructural protein 1 (Influenza A virus, UniProt Q194T2); type: functional, Influenza A virus (A/California/07/2009(H1N1))
Sequence of Nonstructural protein 1 (Q194T2 whole entry): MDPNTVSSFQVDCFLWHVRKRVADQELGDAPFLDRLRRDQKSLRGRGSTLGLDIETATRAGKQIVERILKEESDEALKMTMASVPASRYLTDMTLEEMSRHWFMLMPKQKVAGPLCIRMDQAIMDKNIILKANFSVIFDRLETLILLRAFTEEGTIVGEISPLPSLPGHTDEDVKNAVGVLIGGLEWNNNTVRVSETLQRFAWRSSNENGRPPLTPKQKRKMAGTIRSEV

[20] = non-specific 3'UTR reporter inhibition in Clone20-Shn3RL – cell-based, Renilla luciferase, cherry-picked, counter-screen for Shn3 inhibitor project, dose response (AID 624133); type: functional
[21] = reduction of Shn3 3'UTR-driven luciferase in osteoblasts – cell-based, Clone20 osteoblasts, firefly luciferase, cherry-picked, dose response (AID 624132); type: functional;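 further: firefly luciferase luminescence from reporter carrying the Shn3 3'UTR in osteoblasts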
[22] = loss of viability in HepG2 cells – cell-based, CellTiter-Glo, cherry-picked, cytotoxicity control for Shn3 inhibitor project, dose response (AID 624134); type: functional

Cc1ccc(NCCC(=O)c2cccc([N+](=O)[O-])c2)c(C)c1
IC50 [1]: > 50 µM (not active)

COc1ccc(N2C(=O)CSC2c2ccccc2)cc1 (configuration not stated)
AC50 [2]: 1.9 µM (active)

CCSc1nnc(NC(=O)c2cccc(S(=O)(=O)N(C)c3ccc(C)cc3)c2)s1
AC50 [2]: 1.12 µM (active)

Oc1ccc(N2CCN(c3nnnn3-c3ccccc3)CC2)cc1
AC50 [2]: 1.9 µM (active)

O=C(CCS(=O)(=O)c1ccccc1)Nc1nc2cc3c(cc2s1)OCCO3
EC50 [3]: 79.6 µM (active)
EC50 [4]: > 160 µM (inactive)
EC50 (Streptokinase A): > 150 µM (not active)
EC50 (Streptococcus): > 150 µM (not active)
EC50 [5]: 1.75 µM (active)

Cc1cc(C)cc(C(=N)c2ccccc2Cc2cccc3ccccc23)c1
AC50 (Cytochrome P450 2C9): inconclusive
AC50 (Cytochrome P450 3A4): 2.51 µM (inconclusive)

CC(=O)N1CCN(S(=O)(=O)c2cccc(C(=O)Nc3ccccc3N3CCCC3)c2)CC1
AC50 [2]: 3.27 µM (active)

Cc1cc(/C=N/NC(N)=S)c(C)n1-c1cccc(Cl)c1
EC50 [6]: > 60 µM (not active)
EC50 [4]: > 150 µM (inconclusive)
EC50 [7]: 984 nM (active)
EC50 [5]: 3.69 µM (active)

Nc1c(C(=O)Nc2ccccc2)c2nc3ccccc3nc2n1CCCN1CCOCC1
AC50 [8]: 5.96 µM (active)
IC50 [9]: > 20 µM (inactive)

CC1CN(C(S)=Nc2cccc([N+](=O)[O-])c2)CC(C)O1 (configuration not stated)
EC50 [4]: > 160 µM (inactive)
EC50 [5]: > 38 µM (not active)

COc1ccc2c(c1)-c1nc(/N=C/c3ccc(O)cc3)sc1CC2
EC50 [10]: > 53 µM (inactive)
IC50 [1]: > 50 µM (not active)
IC50 [11]: > 47.1 µM (inactive)

Cc1ccc(C)c2sc(NC(=O)c3ccc(N4CCCCC4)c([N+](=O)[O-])c3)nc12
AC50 (Cytochrome P450 2C9): inconclusive
AC50 (Cytochrome P450 3A4): 3.98 µM (inconclusive)

CCOc1cc(CNc2ccc3[nH]c(O)nc3c2)ccc1OCC(=O)NC(C)(C)C
EC50 [12]: > 112 µM (not active)
IC50 [1]: > 50 µM (not active)
IC50 [13]: 60.2 µM (active)
EC50 [14]: 12 µM (active)

CN(C(=S)Nc1ccc(Oc2ccccc2)cc1)c1ccc(O)cc1
IC50 [1]: > 50 µM (not active)

CCn1c(NC(=O)c2cccs2)nc2ccccc21
EC50 [4]: 48.8 µM (active)
EC50 [5]: 1.43 µM (active)

Cc1[nH]c2ccc(-c3nnc(S)n3C)cc2c1C
EC50 [15]: 14 µM (active)
AC50 [2]: 0.664 µM (active)
EC50 [16]: 8.15 µM (active)
EC50 [17]: 19.2 µM (active)

CCN1CCN(c2cc(C)c3cc(NC(=O)c4cncc(Br)c4)ccc3n2)CC1
EC50 [18]: 13.9 µM (active)
EC50 [19]: 16.2 µM (active)

Oc1cc(-c2ccncc2)cc2cccnc12
IC50 (Nonstructural protein 1): 11.9 µM (active)
AC50 [20]: 3.51 µM (active)
AC50 [21]: 5.4 µM (active)
AC50 [22]: 10.9 µM (active)

CC1=C(C(N)=O)C(c2ccc(C)o2)C(C(N)=O)=C(C)N1
EC50 [4]: > 160 µM (inactive)
EC50 [5]: > 38 µM (not active)

COc1ccc(NC(=O)CNC(=O)c2nn(-c3ccc(OC)cc3OC)c(=O)c3ccccc23)c(OC)c1
EC50 [4]: 132 µM (active)
EC50 [5]: 1.55 µM (active)

COc1ccccc1-c1cc(NCc2ccccc2)ncn1
AC50 (Cytochrome P450 2C9): inconclusive
